# Reference: patent publication US20240252456A1, “ORAL COMPOSITION, SKIN COSMETIC AND HAIR COSMETIC” (MARUZEN PHARMACEUTICALS CO., LTD., priority 2021, published 2024)
# Experiments:
# [1] = target: T1, testosterone 5α-reductase (S-9, rat liver homogenate) (Rattus norvegicus, UniProt P24008); assay: Testosterone 5α-reductase inhibitory action test; type: biochemical; settings: rat liver S-9, read-out: Testosterone 5 α-reductase inhibition rate; for inhibition at 2000 µM: 2000 μmol/L; for inhibition at 8000 µM: 8000 μmol/L
# T1 construct: tissue Oriental Yeast Co., Ltd. S-9; host or cells: rat liver homogenate (S-9 fraction)
# T1 sequence (P24008 1-259): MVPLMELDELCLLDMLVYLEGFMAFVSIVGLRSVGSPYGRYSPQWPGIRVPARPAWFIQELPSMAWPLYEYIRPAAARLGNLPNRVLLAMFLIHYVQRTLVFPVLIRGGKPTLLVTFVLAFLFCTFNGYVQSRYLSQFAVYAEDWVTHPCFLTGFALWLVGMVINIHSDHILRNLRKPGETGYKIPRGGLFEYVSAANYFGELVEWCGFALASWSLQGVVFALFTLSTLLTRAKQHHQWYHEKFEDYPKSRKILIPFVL
# Experimental: In a V-bottom test tube with a lid, 20 μL of a 4.2 mg/mL testosterone (available from FUJIFILM Wako Pure Chemical Corporation) solution prepared with propylene glycol and 825 μL of 5 mmol/L Tris-HCl (pH 7.13) buffer solution containing 1 mg/mL NADPH were mixed.
# Furthermore, 80 μL of each of test sample solutions (Samples 1 to 3, see Table 24 below for final concentrations) prepared with 80% ethanol and 75 μL of S-9 (available from Oriental Yeast Co., Ltd., rat liver homogenate) were added, mixed, and incubated at 37° C. for 60 minutes. After that, 1 mL of methylene chloride was added to stop the reaction. This was centrifuged (1600×g, 10 minutes), the methylene chloride layer was separated, and the separated methylene chloride layer was subjected to gas chromatography analysis under the following conditions to determine the concentrations of 3α-androstanediol, 5α-dihydrotestosterone (5α-DHT), and testosterone. As a control, the same process was performed using the same amount (80 μL) of the sample solvent in place of the test sample solution, and the control was subjected to gas chromatography analysis.
# • Device used: Shimadzu GC-2010 (available from Shimadzu Corporation) • Column: DB-1701 (inner diameter: 0.53 mm, length: 30 m, film thickness: 1.0 μm) (available from J&W Scientific) • Column temperature: 240° C. • Inlet temperature: 300° C. • Detector: FID • Sample injection amount: 1 μL • Split ratio: 1:2 • Carrier gas: Nitrogen gas • Carrier gas flow rate: 12 mL/min
# Quantitative determination of the concentrations of 3α-androstanediol, 5α-DHT, and testosterone was performed by the following method.
# Standard products of 3α-androstanediol, 5α-DHT, and testosterone were each dissolved in ethanol, and the solutions were subjected to gas chromatography analysis. From the concentrations (μg/mL) and peak areas of these compounds, the correspondence relationship between the peak area and the concentration of each compound was preliminarily obtained. Then, the concentration per peak area of each of 3α-androstanediol, 5α-DHT, and testosterone after the reaction between testosterone and S-9 was obtained based on the following equation (1) using the correspondence relationship which was preliminarily obtained.
# Terms in the equation represent the following respective ones. • A: Concentration of 3α-androstanediol, 5α-DHT, or testosterone • B: Peak area of 3α-androstanediol, 5α-DHT, or testosterone • C: Concentration of standard product • D: Peak area of standard product
# Using the compound concentration calculated based on the equation (1), the conversion ratio (concentration ratio between the concentration of 3α-androstanediol and 5α-DHT produced by reduction of testosterone due to testosterone 5α-reductase and the initial concentration of testosterone) was calculated based on the following equation (2).
# Terms in the equation represent the following respective ones. • E: Concentration of 3α-androstanediol (μg/mL) • F: Concentration of 5α-DHT (μg/mL) • G: Concentration of testosterone (μg/mL)
# Using the conversion ratio calculated based on the equation (2), the testosterone 5α-reductase inhibition rate (%) was calculated based on the following equation (3).
# Terms in the equation represent the following respective ones. • H: Conversion ratio with test sample addition • I: Conversion ratio without sample addition
# TGM1 mRNA = assay: Transglutaminase-1 (TGM1) mRNA expression promotive action test; type: cell-based, human; settings: NHEK, 24 hours, A/B×100, corrected with GAPDH
# Experimental: Normal human neonatal epidermal keratinocytes (NHEK) were precultured using normal human epidermal keratinocyte growth medium (KGM), and the cells were collected by a trypsin treatment. The collected cells were diluted with KGM to a cell density of 15×10^4 cells/mL, then seeded with 2 mL portions in a 6-well plate (30×10^4 cells/well), and cultured overnight under conditions of 37° C. and 5% CO2. After culturing, the medium was replaced with normal human epidermal keratinocyte basal medium (KBM, the above KGM without addition of growth additives (hEGF, BPE, insulin, antibacterial agents, hydrocortisone)), and culturing was further performed for 24 hours.
# After culturing for 24 hours, the medium was removed, and 2 mL of each of test samples (Samples 1 to 3, see Table 15 below for final concentrations) dissolved in KBM was added to each well, and culturing was performed under conditions of 37° C. and 5% CO2 for 24 hours. As a control, culturing was performed in the same manner using KBM to which no sample was added. After culturing, the medium was removed, total RNA was extracted using ISOGEN II (available from NIPPON GENE CO., LTD.), each RNA amount was measured using a spectrophotometer, and the total RNA was prepared so as to be 150 ng/μL.
# For TGM1 and GAPDH as an internal standard, the expression levels of mRNA were measured using the above total RNA as a template. Detection was performed through a two-step real-time RT-PCR reaction using a real-time PCR device, Thermal Cycler Dice Real Time System III (available from Takara Bio Inc.), with PrimeScript™ RT Master Mix (Perfect Real Time) (available from Takara Bio Inc.) and TB Green® Fast qPCR Mix (available from Takara Bio Inc.). The primers used were those having the sequences 5′-[…]-3′ and 5′-[…]-3′.
# The expression level of TGM1 mRNA was obtained as a value corrected with a value of GAPDH based on total RNA preparations prepared from cells cultured “with test sample addition” and “without sample addition.” From the obtained values, the TGM1 mRNA expression promotion rate (%) was calculated using the following equation.
# TGM1 mRNA expression promotion rate (%)=A/B×100
# Terms in the equation represent the following respective ones. • A: Corrected value with test sample addition • B: Corrected value without sample addition
SMILES,inhibition at 2000 µM [1],inhibition at 8000 µM [1],TGM1 mRNA expression promotion rate (TGM1 mRNA; 6.25 μmol/L),TGM1 mRNA expression promotion rate (TGM1 mRNA; 25 μmol/L),TGM1 mRNA expression promotion rate (TGM1 mRNA; 100 μmol/L)
"O=C(O)CCc1ccc(O)c(O)c1 [Sample 1, 3,4-Dihydroxyhydrocinnamic acid]",34.3%,100%,214.6%,528.6%,1617.1%
"O=C(O)CCc1ccc(O)cc1 [Sample 2, 3-(4-Hydroxyphenyl)propionic acid]",71%,100%,,,160.8%
"O=C(O)CCc1ccccc1 [Sample 3, 3-phenylpropionic acid]",76.4%,100%,,218.5%,174.9%
